Values of other authors as cited in patent publication US9301957B2, “Immediate release 4-methyl-3-4[[4-(3-pyridinyl)-2-pyrimidinyl]amino]-N-[5-(4-methyl-1H-imidazol-1-YL)-3-(trifluoromethyl)phenyl] benzamide formulation” (Novartis AG, priority 2011, dated 2016).

Columns and labels:
[1] = unit dosage given shortly after food, compared to a fasted state
[2] = nilotinib and its salts

Cc1cn(-c2cc(NC(=O)c3ccc(C)c(Nc4nccc(-c5cccnc5)n4)c3)cc(C(F)(F)F)c2)cn1 [nilotinib, 4-Methyl-3-[[4-(3-pyridinyl)-2-pyrimidinyl]amino]-N-[5-(4-methyl-1H-imidazol-1-yl)-3-(trifluoromethyl)phenyl]benzamide]
systemic exposure, as reflected by AUC and Cmax [1]: increases markedly
water solubility [2]: poorly water soluble
